Assay results reported in patent US5455161A, “Method for the monitoring of multiple anticancer drug resistance” (priority 1992, dated 1995).
Numbered stars: 1 amine (or outer) side, 2 acyl side, 3 side chain; on linkers, the order of the positions; unused ones are H or OH. Bridge positions count the residues as written; N and C are the ends. Square brackets hold non-standard residues; d marks the D form. Peptide text beside a SMILES is read from it. I, II: the chains in the order shown. Actinocin(9to1) = Cc1c2oc3c(C)ccc(C(=O)[*:1])c3nc-2c(C(=O)[*:2])c(N)c1=O; NMeV = CN[C@H](C(=O)O)C(C)C; Sar = CNCC(=O)O

Key:
[1] = target: T1, ornithine decarboxylase from AA8 cells (Cricetulus griseus, UniProt P14019); assay: biochemical; conditions: IC50, concentration required to reduce the ornithine decarboxylase by 50%
T1 sequence (P14019 1-455): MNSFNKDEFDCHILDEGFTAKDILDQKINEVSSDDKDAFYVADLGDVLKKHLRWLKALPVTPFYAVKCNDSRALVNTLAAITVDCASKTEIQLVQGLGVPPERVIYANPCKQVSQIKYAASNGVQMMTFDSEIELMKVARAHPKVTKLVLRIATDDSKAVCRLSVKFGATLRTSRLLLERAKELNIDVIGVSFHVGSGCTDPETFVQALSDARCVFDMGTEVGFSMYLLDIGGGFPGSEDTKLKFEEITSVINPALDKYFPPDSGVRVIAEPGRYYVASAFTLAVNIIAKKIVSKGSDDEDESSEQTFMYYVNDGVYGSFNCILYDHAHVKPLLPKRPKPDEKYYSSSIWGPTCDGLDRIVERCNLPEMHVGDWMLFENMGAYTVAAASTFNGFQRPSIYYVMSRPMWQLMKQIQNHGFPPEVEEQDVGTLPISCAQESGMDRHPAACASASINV
Description: Monolayer cells grown in the absence and presence of a known cytotoxic agent, were washed twice with 10 mls of phosphate-buffered saline and suspended in a petri dish (0.5 ml/10 cm) in an ice-cold ornithine decarboxylase buffer containinig 50 mM of Tris-Cl, pH=7.3, 0.1 mM ethylene diamine tetraacetic acid, 50 uM pyridoxal 5'-phosphate (Sigma) and 5 mM of dithiothreitol. The cells were lysed under three cycles of freezing in liquid nitrogen and thawing at 37° C. The cell lysates were then centrifuged at 15,000 g for 15 minutes at 4° C., the supernatant liquid was collected and used in the assay for the ornithine decarboxylase activity. The assay was based on the Djurhuss method that utilizes a strong cation-exchange paper (Anal. Biochem. 113:352-5, 1981). […] After incubation for 60 minutes at 37° C. under agitation, the reaction mixture was spotted onto a strip of P81 cellulose phosphate paper and dried. After washing in a solution of 0.1M ammonium hydroxide and drying,liquid scintillation counting was performed. In similar manner, blank values were determined by using 80 ul of ornithine decarboxylase buffer, instead of the cytosolic cell extract.

[2] = system: AA8 cells; assay: ODC (ornithine decarboxylase activity) assay of cellular drug sensitivity, wild type AA8 cells; type: cell-based, Chinese hamster; conditions: for IC50: Cricetulus griseus, read-out: IC50 (ODC assay) AA8
Description: (§1) The protein determinations were carried out according to the method of Bradford (Anal.Biochem. 72, 248-54, 1976), using lysozyme, triple crystallization and dialysis, as a standard.
(§2) Monolayers of parental AA8 and multidrug resistant T19 cells grown for 4 days at 37° C., were exposed to various concentrations of the antimitotic agent colchinine, for 6 hours, 18 hours and 48 hours and then the activity of ornithine decarboxylase was determined.
(§3) In the same manner, this assay was tested with various anticancer drugs of various structure and distinct mechanisms of action. The following cytotoxic agents were tested: vinca alkaloids, anthracyclines, epipodophyllotoxins, actinomycin D and antifolates.

[3] = system: AA8 cells; assay: cells; type: cell-based, Chinese hamster; conditions: for IC50: Cricetulus griseus, CHO-AA8, read-out: LD50 (clonogenic assay) AA8
Description: (§4) Clonogenic cytotoxic assays were performed with AA8 and T19 cells exposed to various concentrations of colchinine for 6 hours, 18 hours, 48 hours or continuously, and each time the clonal surviving fractions were determined.

[4] = system: T19 cells; assay: cells; type: cell-based, Chinese hamster
Description: as §4

[5] = system: T19 cells; assay: ODC (ornithine decarboxylase activity) assay of drug resistance, multidrug resistant T19 cells; type: cell-based, Chinese hamster; conditions: for IC50: Cricetulus griseus, read-out: IC50 (ODC assay) T19; for Resistance (-fold), ODC assay, T19 versus AA8: T19/AA8 ratio of IC50
Description: as §1, §2, §3

[6] = CHO-AA8, incubation time 48 hr, mean of two to four independent experiments
[7] = Cricetulus griseus, read-out: LD50 (clonogenic assay) T19
[8] = incubation time 48 hr, mean of two to four independent experiments
[9] = CHO-AA8, incubation time 18 hr, mean of two to four independent experiments
[10] = incubation time 18 hr, mean of two to four independent experiments

Compound `NCCCC(N)(C(=O)O)C(F)F` (racemic) [DMFO, DL-o-difluoromethylornithine] has an IC50 ([1]; extract of AA8-induced cells (received fresh serum-containing medium), 2x10^7 cells) of 5000 nM and an IC50 ([1]; extract of non-induced AA8 cells (no fresh medium), same number of cells) of 1100 nM.

Compound `COc1ccc(OC)c(Cc2cnc3nc(N)nc(N)c3c2C)c1` [Piritrexim] has an IC50 [2, 6] of 5.8 nM, an IC50 [3] of 4.6 nM and an IC50 [4, 7] of 113 nM. The “Resistance (-fold), clonogenic assay, T19 versus AA8” value (from here on “Resistance (-fold), clonogenic assay”) ([4]; ratio of LD50 T19/AA8) was 24.5 -fold, the IC50 [5, 8] was 127 nM and the “Resistance (-fold), ODC assay, T19 versus AA8” value (from here on “Resistance (-fold), ODC assay”) ([5]; incubation time 48 hr) was 22.0 -fold.

Work on `CC[C@]1(O)C[C@H]2CN(CCc3c([nH]c4ccccc34)[C@@](C(=O)OC)(c3cc4c(cc3OC)N(C=O)[C@H]3[C@@](O)(C(=O)OC)[C@H](OC(C)=O)[C@]5(CC)C=CCN6CC[C@]43[C@@H]65)C2)C1` [Vincristine] yielded an IC50 [2, 9] of 79.6 nM, an IC50 [3] of 8.2 nM and an IC50 [4, 7] of 229 nM. For the same compound, the “Resistance (-fold), clonogenic assay” value ([4]; hamster, t19 vs aa8 cells) was 28.1 -fold, the IC50 [5, 10] was 1530 nM and the “Resistance (-fold), ODC assay” value ([5]; incubation time 18 hr) was 19.2 -fold.

Work on `COc1cc([C@@H]2c3cc4c(cc3[C@@H](O[C@@H]3O[C@@H]5CO[C@@H](C)O[C@H]5[C@H](O)[C@H]3O)[C@H]3COC(=O)[C@H]23)OCO4)cc(OC)c1O` [Etoposide] yielded an IC50 ([2]; CHO-AA8, 48 h) of 366 nM, an IC50 [3] of 265 nM and an IC50 [4, 7] of 4200 nM. The “Resistance (-fold), clonogenic assay” value ([4]; ratio of LD50 T19/AA8) was 15.9 -fold, the IC50 ([5]; 48 h) was 4180 nM and the “Resistance (-fold), ODC assay” value ([5]; incubation time 48 hr) was 11.4 -fold.

In the case of `COc1cc(NCc2ccc3nc(N)nc(N)c3c2C)cc(OC)c1OC` [Trimetrexate], the IC50 [2, 6] is reported as 2.9 nM, the IC50 [3] is reported as 2.4 nM and the IC50 [4, 7] is reported as 68.6 nM. The “Resistance (-fold), clonogenic assay” value ([4]; hamster, t19 vs aa8 cells) was 28.6 -fold, the IC50 [5, 8] was 72.4 nM and the “Resistance (-fold), ODC assay” value ([5]; incubation time 48 hr) was 25.0 -fold.

With `CN(Cc1cnc2nc(N)nc(N)c2n1)c1ccc(C(=O)N[C@@H](CCC(=O)O)C(=O)O)cc1` [Methotrexate] the IC50 [2, 6] was 56.5 nM, the IC50 [3] was 25.1 nM and the IC50 [4, 7] was 30.6 nM. The “Resistance (-fold), clonogenic assay” value ([4]; hamster, t19 vs aa8 cells) was 1.2 -fold, the IC50 [5, 8] was 63.8 nM and the “Resistance (-fold), ODC assay” value ([5]; incubation time 48 hr) was 1.1 -fold.

`COc1cccc2c1C(=O)c1c(O)c3c(c(O)c1C2=O)C[C@@](O)(C(C)=O)C[C@@H]3O[C@H]1C[C@H](N)[C@H](O)[C@H](C)O1` [Daunorubicin] showed an IC50 [2, 6] of 29.6 nM, an IC50 [3] of 8.6 nM and an IC50 [4, 7] of 726 nM. For the same compound, the “Resistance (-fold), clonogenic assay” value ([4]; hamster, t19 vs aa8 cells) was 84.1 -fold, the IC50 [5, 8] was 1860 nM and the “Resistance (-fold), ODC assay” value ([5]; incubation time 48 hr) was 63.0 -fold.

In the case of `Cc1c2oc3c(C)ccc(C(=O)N[C@@H]4C(=O)N[C@H](C(C)C)C(=O)N5CCC[C@H]5C(=O)N(C)CC(=O)N(C)[C@@H](C(C)C)C(=O)O[C@@H]4C)c3nc-2c(C(=O)N[C@@H]2C(=O)N[C@H](C(C)C)C(=O)N3CCC[C@H]3C(=O)N(C)CC(=O)N(C)[C@@H](C(C)C)C(=O)O[C@@H]2C)c(N)c1=O` [Actinomycin D] (I: T[dV]P[Sar][NMeV] / II: T[dV]P[Sar][NMeV]; ester I:1-I:C, II:1-II:C; linker I:N-II:N via Actinocin(9to1)), the IC50 ([2]; CHO-AA8, 18 h) is reported as 3.7 nM, the IC50 [3] is reported as 2.2 nM and the IC50 [4, 7] is reported as 49.7 nM. For the same compound, the “Resistance (-fold), clonogenic assay” value ([4]; ratio of LD50 T19/AA8) was 22.6 -fold, the IC50 ([5]; 18 h) was 42 nM and the “Resistance (-fold), ODC assay” value ([5]; incubation time 18 hr) was 11.3 -fold.

In the case of `Cc1nc(N)nc(N)c1-c1ccc(Cl)c(Cl)c1` [Metoprine], the IC50 [2, 6] is reported as 13.8 nM, the IC50 [3] is reported as 12.6 nM and the IC50 [4, 7] is reported as 33.7 nM. For the same compound, the “Resistance (-fold), clonogenic assay” value ([4]; hamster, t19 vs aa8 cells) was 2.7 -fold, the IC50 [5, 8] was 53.2 nM and the “Resistance (-fold), ODC assay” value ([5]; incubation time 48 hr) was 3.9 -fold.

For `COc1ccc(C[C@H](N)C(=O)N[C@H]2[C@@H](O)[C@H](n3cnc4c(N(C)C)ncnc43)O[C@@H]2CO)cc1` [Puromycin], the IC50 [2, 6] was 10.5 nM, the IC50 [3] was 4.5 nM and the IC50 [4, 7] was 116 nM. The “Resistance (-fold), clonogenic assay” value ([4]; hamster, t19 vs aa8 cells) was 25.8 -fold, the IC50 [5, 8] was 315 nM and the “Resistance (-fold), ODC assay” value ([5]; incubation time 48 hr) was 30.0 -fold.

With `CC[C@]1(O)C[C@@H]2CN(CCc3c([nH]c4ccccc34)[C@@](C(=O)OC)(c3cc4c(cc3OC)N(C)[C@H]3[C@@](O)(C(=O)OC)[C@H](OC(C)=O)[C@]5(CC)C=CCN6CC[C@]43[C@@H]65)C2)C1` [Vinblastine] the IC50 [2, 9] was 15.9 nM, the IC50 [3] was 3 nM and the IC50 [4, 7] was 80 nM. For the same compound, the “Resistance (-fold), clonogenic assay” value ([4]; hamster, t19 vs aa8 cells) was 26.7 -fold, the IC50 [5, 10] was 275 nM and the “Resistance (-fold), ODC assay” value ([5]; incubation time 18 hr) was 17.3 -fold.

Work on `COc1cccc2c1C(=O)c1c(O)c3c(c(O)c1C2=O)C[C@@](O)(C(=O)CO)C[C@@H]3O[C@H]1C[C@H](N)[C@H](O)[C@H](C)O1` [Doxorubicin] yielded an IC50 [2, 6] of 55 nM, an IC50 [3] of 40 nM and an IC50 [4, 7] of 8450 nM. For the same compound, the IC50 [5, 8] was 3580 nM and the “Resistance (-fold), ODC assay” value ([5]; incubation time 48 hr) was 65.0 -fold.

In the case of `COc1cc2c(c(OC)c1OC)-c1ccc(OC)c(=O)cc1[C@@H](NC(C)=O)CC2` [Colchicine], the “ornithine decarboxylase activity with increased drug concentrations” value ([2]; exposure 6, 18 and 48 hours) is reported as “dose-dependent decrease”, the “LD50 (clonogenic assay) AA8” value [3] is reported as 100 nM and the IC50 ([4]; read-out: LD50 (50% lethal dose), clonal survival, t19 cells) is reported as 6700 nM.
